Laboratory results reported in ChEMBL document CHEMBL1201861, “Genomics of Drug Sensitity in Cancer screening data, Wellcome Trust Sanger Institute”.
Counter-ions that a name gives are not always drawn.

Tests used:
Test in all cases: cells
Format in all cases: functional, cell-based, Homo sapiens
[1] = system: COLO-800; conditions: Homo sapiens, COLO-800;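 also: growth inhibition of COLO-800 cells, read out with a cell viability assay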
Description: SANGER: Inhibition of human COLO-800 cell growth in a cell viability assay.

[2] = system: CP66-MEL; conditions: Homo sapiens, CP66-MEL;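 also: growth inhibition of CP66-MEL cells determined in a cell viability assay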
Description: SANGER: Inhibition of human CP66-MEL cell growth in a cell viability assay.

[3] = system: D283 Med; conditions: Homo sapiens, D283 Med
Description: SANGER: Inhibition of human D-283MED cell growth in a cell viability assay.

[4] = system: D-502MG; conditions: Homo sapiens, D-502MG
Description: SANGER: Inhibition of human D-502MG cell growth in a cell viability assay.

[5] = system: DMS-79; conditions: Homo sapiens, DMS-79;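 also: growth inhibition measured with a cell viability assay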
Description: SANGER: Inhibition of human DMS-79 cell growth in a cell viability assay.

[6] = system: EC-GI-10; conditions: Homo sapiens, EC-GI-10
Description: SANGER: Inhibition of human EC-GI-10 cell growth in a cell viability assay.

[7] = system: ES3; conditions: Homo sapiens, ES3;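 also: growth inhibition of ES3 cells, read out with a cell viability assay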
Description: SANGER: Inhibition of human ES3 cell growth in a cell viability assay.

[8] = system: ES8; conditions: Homo sapiens, ES8;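 also: growth inhibition of human ES8 cells, read out with a cell viability assay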
Description: SANGER: Inhibition of human ES8 cell growth in a cell viability assay.

[9] = system: EW-18; conditions: Homo sapiens, EW-18;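 also: growth inhibition of EW-18 cells, read out by a cell viability assay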
Description: SANGER: Inhibition of human EW-18 cell growth in a cell viability assay.

[10] = system: EW-3; conditions: Homo sapiens, EW-3;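 also: cell viability assay read-out, IC50 reflects inhibition of growth of the EW-3 cells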
Description: SANGER: Inhibition of human EW-3 cell growth in a cell viability assay.

[11] = system: GT3TKB; conditions: Homo sapiens, GT3TKB;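 also: growth inhibition of the cell line, read out with a cell viability assay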
Description: SANGER: Inhibition of human GT3TKB cell growth in a cell viability assay.

[12] = system: HCC 2998; conditions: Homo sapiens, HCC 2998;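 also: growth inhibition of human HCC2998 cells, measured with a cell viability read-out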
Description: SANGER: Inhibition of human HCC2998 cell growth in a cell viability assay.

[13] = system: HDLM-2; conditions: Homo sapiens, HDLM-2;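 also: cell viability assay measuring suppression of HDLM-2 proliferation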
Description: SANGER: Inhibition of human HDLM-2 cell growth in a cell viability assay.

[14] = system: HOP-62; conditions: Homo sapiens, HOP-62;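 also: cell growth inhibition determined with a viability assay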
Description: SANGER: Inhibition of human HOP-62 cell growth in a cell viability assay.

[15] = system: HT; conditions: Homo sapiens, HT
Description: SANGER: Inhibition of human HT cell growth in a cell viability assay.

[16] = system: IST-MEL1; conditions: Homo sapiens, IST-MEL1;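 also: growth inhibition of the cell line, read out with a cell viability assay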
Description: SANGER: Inhibition of human IST-MEL1 cell growth in a cell viability assay.

[17] = system: IST-MES1; conditions: Homo sapiens, IST-MES1;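 also: growth inhibition of IST-MES1 cells, measured with a cell viability assay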
Description: SANGER: Inhibition of human IST-MES1 cell growth in a cell viability assay.

[18] = system: JVM-3; conditions: Homo sapiens, JVM-3;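 also: growth inhibition of human JVM-3 cells, read out with a cell viability assay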
Description: SANGER: Inhibition of human JVM-3 cell growth in a cell viability assay.

[19] = system: KARPAS-299; conditions: Homo sapiens, KARPAS-299
Description: SANGER: Inhibition of human KARPAS-299 cell growth in a cell viability assay.

[20] = system: KLE; conditions: Homo sapiens, KLE;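 also: growth inhibition of human KLE cells, read out with a cell viability assay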
Description: SANGER: Inhibition of human KLE cell growth in a cell viability assay.

[21] = system: KM-H2; conditions: Homo sapiens, KM-H2;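 also: growth inhibition of KM-H2 cells, read out by a cell viability assay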
Description: SANGER: Inhibition of human KM-H2 cell growth in a cell viability assay.

[22] = system: KMOE-2; conditions: Homo sapiens, KMOE-2;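 also: growth inhibition of human KMOE-2 cells, read out with a cell viability assay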
Description: SANGER: Inhibition of human KMOE-2 cell growth in a cell viability assay.

[23] = system: KNS-81-FD; conditions: Homo sapiens, KNS-81-FD;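 also: growth inhibition of KNS-81-FD cells, read out with a cell viability assay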
Description: SANGER: Inhibition of human KNS-81-FD cell growth in a cell viability assay.

[24] = system: KS-1; conditions: Homo sapiens, KS-1;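 also: growth inhibition of KS-1 cells, read out with a cell viability assay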
Description: SANGER: Inhibition of human KS-1 cell growth in a cell viability assay.

[25] = system: LB1047-RCC; conditions: Homo sapiens, LB1047-RCC;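 also: inhibition of cell growth, determined with a cell viability assay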
Description: SANGER: Inhibition of human LB1047-RCC cell growth in a cell viability assay.

[26] = system: LB373-MEL-D; conditions: Homo sapiens, LB373-MEL-D;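 also: growth inhibition of the cell line, read out in a cell viability assay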
Description: SANGER: Inhibition of human LB373-MEL-D cell growth in a cell viability assay.

[27] = system: LC-2-ad; conditions: Homo sapiens, LC-2-ad;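 also: growth inhibition of human LC-2-ad cells, read out with a cell viability assay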
Description: SANGER: Inhibition of human LC-2-ad cell growth in a cell viability assay.

[28] = system: LS-513; conditions: Homo sapiens, LS-513
Description: SANGER: Inhibition of human LS-513 cell growth in a cell viability assay.

[29] = system: MHH-NB-11; conditions: Homo sapiens, MHH-NB-11;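 also: growth inhibition of human MHH-NB-11 cells, read out by a cell viability assay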
Description: SANGER: Inhibition of human MHH-NB-11 cell growth in a cell viability assay.

[30] = system: MMAC-SF; conditions: Homo sapiens, MMAC-SF;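 also: growth inhibition of human MMAC-SF cells, read out with a cell viability assay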
Description: SANGER: Inhibition of human MMAC-SF cell growth in a cell viability assay.

[31] = system: NB10; conditions: Homo sapiens, NB10;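 also: growth inhibition of NB10 cells, read out by a cell viability assay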
Description: SANGER: Inhibition of human NB10 cell growth in a cell viability assay.

[32] = system: NCI-H1092; conditions: Homo sapiens, NCI-H1092;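 also: cell growth inhibition measured with a cell viability assay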
Description: SANGER: Inhibition of human NCI-H1092 cell growth in a cell viability assay.

[33] = system: NCI-H1155; conditions: Homo sapiens, NCI-H1155;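 also: cell growth inhibition measured by a viability assay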
Description: SANGER: Inhibition of human NCI-H1155 cell growth in a cell viability assay.

[34] = system: NCI-H1648; conditions: Homo sapiens, NCI-H1648;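 also: cell viability assay measuring inhibition of NCI-H1648 cell growth, from the Sanger screening data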
Description: SANGER: Inhibition of human NCI-H1648 cell growth in a cell viability assay.

[35] = system: NCI-H1770; conditions: Homo sapiens, NCI-H1770;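 also: growth inhibition of NCI-H1770 cells determined with a viability readout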
Description: SANGER: Inhibition of human NCI-H1770 cell growth in a cell viability assay.

[36] = system: NCI-H69; conditions: Homo sapiens, NCI-H69;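 also: growth inhibition of the cell line, read out with a cell viability assay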
Description: SANGER: Inhibition of human NCI-H69 cell growth in a cell viability assay.

[37] = system: NCI-H747; conditions: Homo sapiens, NCI-H747;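 also: growth inhibition of human NCI-H747 cells, read out by a cell viability assay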
Description: SANGER: Inhibition of human NCI-H747 cell growth in a cell viability assay.

[38] = system: NEC8; conditions: Homo sapiens, NEC8;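 also: growth inhibition of human NEC8 cells, read out by a cell viability assay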
Description: SANGER: Inhibition of human NEC8 cell growth in a cell viability assay.

[39] = system: OMC-1; conditions: Homo sapiens, OMC-1;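 also: growth inhibition of the OMC-1 cell line, measured by a cell viability assay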
Description: SANGER: Inhibition of human OMC-1 cell growth in a cell viability assay.

[40] = system: RKO; conditions: Homo sapiens, RKO;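 also: growth inhibition of human RKO cells, read out with a cell viability assay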
Description: SANGER: Inhibition of human RKO cell growth in a cell viability assay.

[41] = system: RS4-11; conditions: Homo sapiens, RS4-11;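 also: growth inhibition of RS4-11 cells, read out by a cell viability assay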
Description: SANGER: Inhibition of human RS4-11 cell growth in a cell viability assay.

[42] = system: SK-LMS-1; conditions: Homo sapiens, SK-LMS-1;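 also: growth inhibition of human SK-LMS-1 cells, read out with a cell viability assay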
Description: SANGER: Inhibition of human SK-LMS-1 cell growth in a cell viability assay.

[43] = system: SK-PN-DW; conditions: Homo sapiens, SK-PN-DW;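 also: growth inhibition measured with a viability assay on these cells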
Description: SANGER: Inhibition of human SK-PN-DW cell growth in a cell viability assay.

[44] = system: ACN; conditions: Homo sapiens, ACN;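 also: growth inhibition of the human ACN cell line, read out via cell viability testing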
Description: SANGER: Inhibition of human ACN cell growth in a cell viability assay.

[45] = system: ATN-1; conditions: Homo sapiens, ATN-1;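 also: growth inhibition of human ATN-1 cells, read out with a cell viability assay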
Description: SANGER: Inhibition of human ATN-1 cell growth in a cell viability assay.

[46] = system: BB65-RCC; conditions: Homo sapiens, BB65-RCC;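 also: growth inhibition of the cell line, measured with a cell viability assay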
Description: SANGER: Inhibition of human BB65-RCC cell growth in a cell viability assay.

[47] = system: BE-13; conditions: Homo sapiens, BE-13;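 also: growth inhibition of human BE-13 cells, measured with a cell viability assay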
Description: SANGER: Inhibition of human BE-13 cell growth in a cell viability assay.

[48] = system: TK-10; conditions: Homo sapiens, TK-10;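 also: growth inhibition of TK-10 cells, read out in a cell viability assay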
Description: SANGER: Inhibition of human TK10 cell growth in a cell viability assay.

[49] = system: CCRF-CEM; conditions: Homo sapiens, CCRF-CEM;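 also: inhibition of CCRF-CEM cell growth, measured by a cell viability assay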
Description: SANGER: Inhibition of human CCRF-CEM cell growth in a cell viability assay.

Question: Which results are given for `Oc1ccc2ccccc2c1SSc1c(O)ccc2ccccc12`?
Answer: IC50 [1]: > 32000 nM; IC50 [2]: > 32000 nM; IC50 [3]: > 32000 nM; IC50 [4]: > 32000 nM; IC50 [5]: > 32000 nM; IC50 [6]: > 32000 nM; IC50 [7]: 11400 nM; IC50 [8]: > 32000 nM; IC50 [9]: > 32000 nM; IC50 [10]: 29500 nM; IC50 [11]: > 32000 nM; IC50 [12]: > 32000 nM; IC50 [13]: > 32000 nM; IC50 [14]: > 32000 nM; IC50 [15]: > 32000 nM; IC50 [16]: > 32000 nM; IC50 [17]: > 32000 nM; IC50 [18]: > 32000 nM; IC50 [19]: > 32000 nM; IC50 [20]: > 32000 nM; IC50 [21]: > 32000 nM; IC50 [22]: > 32000 nM; IC50 [23]: > 32000 nM; IC50 [24]: 6890 nM; IC50 [25]: > 32000 nM; IC50 [26]: > 32000 nM; IC50 [27]: 24100 nM; IC50 [28]: > 32000 nM; IC50 [29]: > 32000 nM; IC50 [30]: > 32000 nM; IC50 [31]: > 32000 nM; IC50 [32]: > 32000 nM; IC50 [33]: > 32000 nM; IC50 [34]: > 32000 nM; IC50 [35]: > 32000 nM; IC50 [36]: > 32000 nM; IC50 [37]: > 32000 nM; IC50 [38]: > 32000 nM; IC50 [39]: > 32000 nM; IC50 [40]: 5280 nM; IC50 [41]: 23200 nM; IC50 [42]: 14800 nM; IC50 [43]: 27900 nM; IC50 [44]: > 32000 nM; IC50 [45]: > 32000 nM; IC50 [46]: > 32000 nM; IC50 [47]: > 32000 nM; IC50 [48]: > 32000 nM; IC50 [49]: 5980 nM

Question: `CCC/C=C/C=C/C(=O)O[C@H]1/C(=C/C(=O)OC)C[C@H]2C[C@H]([C@@H](C)O)OC(=O)C[C@H](O)C[C@@H]3C[C@H](OC(C)=O)C(C)(C)[C@](O)(C[C@@H]4C/C(=C/C(=O)OC)C[C@H](/C=C/C(C)(C)[C@]1(O)O2)O4)O3` [BRYOSTATIN 1] was tested. Which IC50 [1] did it give?
Answer: Its IC50 is > 8 nM.

Question: And the IC50 [2]?
Answer: Its IC50 is > 8 nM.

Question: And the IC50 [3]?
Answer: The IC50 was > 8 nM.

Question: And the IC50 [4]?
Answer: Its IC50 is > 8 nM.

Question: What about the IC50 [5] of the same compound?
Answer: Its IC50 is > 8 nM.

Question: And the IC50 [6]?
Answer: Its IC50 is > 8 nM.

Question: What about the IC50 [7] of the same compound?
Answer: Its IC50 is > 8 nM.

Question: What about the IC50 [8] of the same compound?
Answer: The IC50 was > 8 nM.

Question: What about the IC50 [9] of the same compound?
Answer: The IC50 was > 8 nM.

Question: What about the IC50 [10] of the same compound?
Answer: The IC50 was > 8 nM.

Question: What about the IC50 [11] of the same compound?
Answer: Its IC50 is > 8 nM.

Question: And the IC50 [12]?
Answer: Its IC50 is > 8 nM.

Question: What about the IC50 [13] of the same compound?
Answer: Its IC50 is > 8 nM.

Question: And the IC50 [14]?
Answer: The IC50 was > 8 nM.

Question: And the IC50 [15]?
Answer: Its IC50 is > 8 nM.

Question: And the IC50 [16]?
Answer: The IC50 was > 8 nM.

Question: And the IC50 [17]?
Answer: The IC50 was > 8 nM.

Question: What about the IC50 [18] of the same compound?
Answer: Its IC50 is > 8 nM.

Question: And the IC50 [19]?
Answer: Its IC50 is > 8 nM.

Question: What about the IC50 [20] of the same compound?
Answer: The IC50 was > 8 nM.

Question: And the IC50 [21]?
Answer: Its IC50 is > 8 nM.

Question: What about the IC50 [22] of the same compound?
Answer: Its IC50 is > 8 nM.

Question: What about the IC50 [23] of the same compound?
Answer: Its IC50 is > 8 nM.

Question: What about the IC50 [24] of the same compound?
Answer: Its IC50 is > 8 nM.

Question: What about the IC50 [25] of the same compound?
Answer: Its IC50 is > 8 nM.

Question: And the IC50 [26]?
Answer: Its IC50 is > 8 nM.

Question: And the IC50 [27]?
Answer: Its IC50 is > 8 nM.

Question: What about the IC50 [28] of the same compound?
Answer: The IC50 was > 8 nM.

Question: What about the IC50 [29] of the same compound?
Answer: Its IC50 is > 8 nM.

Question: What about the IC50 [30] of the same compound?
Answer: The IC50 was > 8 nM.

Question: What about the IC50 [31] of the same compound?
Answer: Its IC50 is > 8 nM.

Question: What about the IC50 [32] of the same compound?
Answer: The IC50 was > 8 nM.

Question: What about the IC50 [33] of the same compound?
Answer: Its IC50 is > 8 nM.

Question: And the IC50 [34]?
Answer: The IC50 was > 8 nM.

Question: And the IC50 [35]?
Answer: The IC50 was > 8 nM.

Question: What about the IC50 [36] of the same compound?
Answer: The IC50 was > 8 nM.

Question: What about the IC50 [37] of the same compound?
Answer: Its IC50 is > 8 nM.

Question: And the IC50 [38]?
Answer: Its IC50 is > 8 nM.

Question: And the IC50 [39]?
Answer: The IC50 was > 8 nM.

Question: What about the IC50 [40] of the same compound?
Answer: The IC50 was > 8 nM.

Question: What about the IC50 [41] of the same compound?
Answer: The IC50 was > 8 nM.

Question: What about the IC50 [42] of the same compound?
Answer: Its IC50 is > 8 nM.

Question: What about the IC50 [43] of the same compound?
Answer: The IC50 was > 8 nM.

Question: What about the IC50 [44] of the same compound?
Answer: The IC50 was > 8 nM.

Question: What about the IC50 [45] of the same compound?
Answer: Its IC50 is > 8 nM.

Question: And the IC50 [46]?
Answer: Its IC50 is > 8 nM.

Question: And the IC50 [47]?
Answer: The IC50 was > 8 nM.

Question: What about the IC50 [48] of the same compound?
Answer: The IC50 was > 8 nM.

Question: What about the IC50 [49] of the same compound?
Answer: Its IC50 is > 8 nM.

Question: Which results are given for `COC1=CC(c2cc3ccccc3[nH]2)=N/C1=C\c1[nH]c(C)cc1C` [OBATOCLAX MESYLATE]?
Answer: IC50 [1]: 5190 nM; IC50 [2]: 871 nM; IC50 [3]: 1120 nM; IC50 [4]: 6320 nM; IC50 [5]: > 16000 nM; IC50 [6]: > 16000 nM; IC50 [7]: 278 nM; IC50 [8]: 116 nM; IC50 [9]: 130 nM; IC50 [10]: 3410 nM; IC50 [11]: 163 nM; IC50 [12]: < 62.5 nM; IC50 [13]: 420 nM; IC50 [14]: 82.5 nM; IC50 [15]: 256 nM; IC50 [16]: < 62.5 nM; IC50 [17]: 286 nM; IC50 [18]: > 16000 nM; IC50 [19]: > 16000 nM; IC50 [20]: 1660 nM; IC50 [21]: 701 nM; IC50 [22]: 90.4 nM; IC50 [23]: 367 nM; IC50 [24]: 305 nM; IC50 [25]: 358 nM; IC50 [26]: 42.3 nM; IC50 [27]: 15.8 nM; IC50 [28]: > 16000 nM; IC50 [29]: 3440 nM; IC50 [30]: 76.7 nM; IC50 [31]: 2820 nM; IC50 [32]: 3080 nM; IC50 [33]: 6960 nM; IC50 [34]: 113 nM; IC50 [35]: 47 nM; IC50 [36]: 4700 nM; IC50 [37]: 143 nM; IC50 [38]: 55.9 nM; IC50 [39]: 721 nM; IC50 [40]: < 62.5 nM; IC50 [41]: 85 nM; IC50 [42]: 314 nM; IC50 [43]: 57.3 nM; IC50 [44]: < 62.5 nM; IC50 [45]: 167 nM; IC50 [46]: 175 nM; IC50 [47]: 129 nM; IC50 [48]: 177 nM; IC50 [49]: 771 nM
